From patent publication US20210220374A1, “METHODS OF TREATING TE[…]” (Clarus Therapeutics, Inc., priority 2013, published 2021)
Where “and” joins values, the source holds several entries; their conditions need not be identical. Equal values may be shown once.

Experiment: Optimal sampling time: pooled steady-state serum T data of LOT-AA and LOT-BB, 200 mg T BID as TU
Type: in vivo, hypogonadal men
Experimental: An investigation was conducted to identify a single optimal sampling time for monitoring the responsiveness of hypogonadal male patients subjects to chronic BID dosing of T using a SEDDS formulation of TU. Concentration data and derived pharmacokinetic parameters for 41 subjects from two studies (LOT-AA and LOT-BB) where subjects received 200 mg BID of T, as TU, for at least seven days were used in this investigation. Correlation and contingency table approaches were used in the investigation.
Concentration data and pharmacokinetic parameters from hypogonadal male subjects that participated in study LOT-AA and study LOT-BB were combined into a single data set. From study LOT-AA, only the information from Day 7 of Treatment 3 (8 days of treatment with 200 mg BID of T, as TU) was used. Study LOT-AA contributed data from 26 subjects treated for 7 days, and study LOT-BBBB contributed data from 15 subjects treated for 28 days with 200 mg BID of T, as TU. Combining of the data from these two groups of subjects is supported by the finding from study LOT-BBBB that T steady-state is reached in 5-7 days.
The sample collection times for these two studies both spanned a 12-hour window, but not all sample collection times were common to both studies. LOT-AA used sample collection times of 0, 1, 2, 4, 8 and 12 hours; LOT-BBBB used sample collection times of 0, 1.5, 3, 4, 5, 6, 8 and 12 hours. The current analysis used the superset of the combined set of collection times (0, 1, 1.5, 2, 3, 4, 5, 6, 8 and 12 hours). Concentration values that were missing for a subject in either of the data sets at a particular sample collection time were estimated by linear interpolation, using the existing nearest neighbor concentration values for that subject, i.e., interpolation of missing data was subject-specific.

[1] = LOT-AA subjects, estimated by linear interpolation
[2] = LOT-BB subjects, estimated by linear interpolation
[3] = targeted Cavg 300-1000, 41 subjects

## CCCCCCCCCCC(=O)O[C@H]1CC[C@H]2[C@@H]3CCC4=CC(=O)CC[C@]4(C)[C@H]3CC[C@]12C [TU, testosterone undecanoate]
[1]
  T concentration 3 hr, individual subjects: 777 ng/dL and 785 ng/dL and 590 ng/dL and 433 ng/dL and 984 ng/dL and 1030 ng/dL and 1345 ng/dL and 936 ng/dL and 164 ng/dL and 183 ng/dL and 193 ng/dL and 353 ng/dL and 844 ng/dL and 700 ng/dL and 411 ng/dL and 891 ng/dL and 438 ng/dL and 271 ng/dL and 243 ng/dL and 160 ng/dL and 415 ng/dL and 308 ng/dL and 1270 ng/dL and 918 ng/dL and 837 ng/dL and 546 ng/dL
  T concentration 5 hr, individual subjects: 978 ng/dL and 778 ng/dL and 686 ng/dL and 595 ng/dL and 865 ng/dL and 847 ng/dL and 1289 ng/dL and 886 ng/dL and 209 ng/dL and 248 ng/dL and 324 ng/dL and 311 ng/dL and 1065 ng/dL and 788 ng/dL and 418 ng/dL and 1012 ng/dL and 579 ng/dL and 427 ng/dL and 450 ng/dL and 205 ng/dL and 380 ng/dL and 503 ng/dL and 1533 ng/dL and 740 ng/dL and 768 ng/dL and 969 ng/dL
  T concentration 6 hr, individual subjects: 856 ng/dL and 606 ng/dL and 540 ng/dL and 590 ng/dL and 690 ng/dL and 653 ng/dL and 1048 ng/dL and 703 ng/dL and 232 ng/dL and 248 ng/dL and 423 ng/dL and 314 ng/dL and 789 ng/dL and 648 ng/dL and 415 ng/dL and 1145 ng/dL and 503 ng/dL and 539 ng/dL and 622 ng/dL and 216 ng/dL and 367 ng/dL and 639 ng/dL and 1296 ng/dL and 597 ng/dL and 588 ng/dL and 1283 ng/dL
  T concentration […], individual subjects: 371 ng/dL and 435 ng/dL and 297 ng/dL and 272 ng/dL and 632 ng/dL and 595 ng/dL and 845 ng/dL and 802 ng/dL and 162 ng/dL and 87 ng/dL and 150 ng/dL and 427 ng/dL and 214 ng/dL and 312 ng/dL and 454 ng/dL and 1081 ng/dL and 267 ng/dL and 241 ng/dL and 204 ng/dL and 116 ng/dL and 492 ng/dL and 237 ng/dL and 757 ng/dL and 654 ng/dL and 457 ng/dL and 403 ng/dL
LOT-AA subjects, observed
  T concentration 1 hr, individual subjects: 287 ng/dL and 251 ng/dL and 246 ng/dL and 280 ng/dL and 335 ng/dL and 170 ng/dL and 530 ng/dL and 801 ng/dL and 183 ng/dL and 57 ng/dL and 140 ng/dL and 456 ng/dL and 80 ng/dL and 153 ng/dL and 506 ng/dL and 1260 ng/dL and 314 ng/dL and 256 ng/dL and 199 ng/dL and 105 ng/dL and 547 ng/dL and 225 ng/dL and 744 ng/dL and 354 ng/dL and 187 ng/dL and 368 ng/dL
  T concentration 2 hr, individual subjects: 454 ng/dL and 619 ng/dL and 347 ng/dL and 264 ng/dL and 928 ng/dL and 1020 ng/dL and 1160 ng/dL and 802 ng/dL and 140 ng/dL and 116 ng/dL and 159 ng/dL and 397 ng/dL and 348 ng/dL and 471 ng/dL and 402 ng/dL and 902 ng/dL and 219 ng/dL and 226 ng/dL and 208 ng/dL and 126 ng/dL and 437 ng/dL (2×) and 248 ng/dL and 770 ng/dL and 953 ng/dL and 726 ng/dL
[2]
  T concentration 1 hr, individual subjects: 545 ng/dL and 531 ng/dL and 279 ng/dL (2×) and 92 ng/dL and 152 ng/dL and 161 ng/dL and 234 ng/dL and 446 ng/dL and 869 ng/dL and 248 ng/dL and 365 ng/dL and 127 ng/dL and 233 ng/dL and 271 ng/dL
  T concentration 2 hr, individual subjects: 506 ng/dL and 725 ng/dL and 490 ng/dL and 149 ng/dL and 168 ng/dL and 394 ng/dL and 281 ng/dL and 812 ng/dL and 770 ng/dL and 461 ng/dL and 274 ng/dL and 166 ng/dL and 350 ng/dL and 346 ng/dL and 349 ng/dL
LOT-BB subjects, observed
  T concentration 3 hr, individual subjects: 425 ng/dL and 778 ng/dL and 723 ng/dL and 243 ng/dL and 241 ng/dL and 873 ng/dL and 360 ng/dL and 1440 ng/dL and 684 ng/dL and 908 ng/dL and 179 ng/dL and 259 ng/dL and 553 ng/dL and 461 ng/dL and 445 ng/dL
  T concentration 5 hr, individual subjects: 486 ng/dL and 1020 ng/dL and 332 ng/dL and 125 ng/dL and 1230 ng/dL and 714 ng/dL and 1270 ng/dL and 1690 ng/dL and 514 ng/dL and 999 ng/dL and 214 ng/dL and 458 ng/dL and 1330 ng/dL and 289 ng/dL and 507 ng/dL
  T concentration 6 hr, individual subjects: 671 ng/dL and 1660 ng/dL and 292 ng/dL and 238 ng/dL and 828 ng/dL and 773 ng/dL and 972 ng/dL and 1340 ng/dL and 593 ng/dL and 538 ng/dL and 620 ng/dL and 351 ng/dL and 1420 ng/dL and 320 ng/dL and 441 ng/dL
  T concentration […], individual subjects: 547 ng/dL and 699 ng/dL and 374 ng/dL and 102 ng/dL and 132 ng/dL and 155 ng/dL and 242 ng/dL and 498 ng/dL and 813 ng/dL and 237 ng/dL and 321 ng/dL and 120 ng/dL and 249 ng/dL and 288 ng/dL and 301 ng/dL
Serum T, N 41
  C(0), Max: 1600 ng/dL
  C(0), Mean: 363 ng/dL
  C(0), Median: 244 ng/dL
  C(0), Min: 61.0 ng/dL
  C(1), Max: 1260 ng/dL
  C(1), Mean: 338 ng/dL
  C(1), Median: 271 ng/dL
  C(1), Min: 57.3 ng/dL
  C(1.5), Max: 1081 ng/dL
  C(1.5), Mean: 391 ng/dL
  C(1.5), Median: 312 ng/dL
  C(1.5), Min: 86.6 ng/dL
  C(2), Max: 1160 ng/dL
  C(2), Mean: 466 ng/dL
  C(2), Median: 397 ng/dL
  C(2), Min: 116 ng/dL
  C(3), Max: 1440 ng/dL
  C(3), Mean: 600 ng/dL
  C(3), Median: 546 ng/dL
  C(3), Min: 160 ng/dL
  C(4), Max: 1770 ng/dL
  C(4), Mean: 745 ng/dL
  C(4), Median: 720 ng/dL
  C(4), Min: 127 ng/dL
  C(5), Max: 1690 ng/dL
  C(5), Mean: 708 ng/dL
  C(5), Median: 686 ng/dL
  C(5), Min: 125 ng/dL
  C(6), Max: 1660 ng/dL
  C(6), Mean: 673 ng/dL
  C(6), Median: 606 ng/dL
  C(6), Min: 216 ng/dL
  C(8), Max: 1910 ng/dL
  C(8), Mean: 537 ng/dL
  C(8), Median: 367 ng/dL
  C(8), Min: 225 ng/dL
  C(12), Max: 757 ng/dL
  C(12), Mean: 278 ng/dL
  C(12), Median: 222 ng/dL
  C(12), Min: 84.2 ng/dL
  Cavg, Max: 1057 ng/dL
  Cavg, Mean: 517 ng/dL
  Cavg, Median: 454 ng/dL
  Cavg, Min: 192 ng/dL
  Cmax, Max: 1910 ng/dL
  Cmax, Mean: 970 ng/dL
  Cmax, Median: 951 ng/dL
  Cmax, Min: 249 ng/dL
[3]
  Number of subjects, Cavg in range: 33
  Number of subjects, Cavg too high: 3
  Number of subjects, Cavg too low: 5
